Measurements as given in patent publication US12162890B2 (Novartis AG, priority 2015, dated 2024).

Target: HEK293 cells with stable expression of the GRIN1 gene and tetracycline-inducible expression of the GRIN2B gene (NMDA receptor, NR2B) (Homo sapiens, UniProt Q13224)
Test: Fluo-8 Ca2+ flux assay: reversal of Ro 25-6981-mediated suppression of the Ca2+ response to co-agonist (glutamate/glycine); also: test concentration or dose not given here
Type: cell-based
Conditions: reversal of the Ro 25-6981 suppression of the Ca2+ response to co-agonist (glutamate/glycine)

HEK293 cells with stable expression of the GRIN1 gene and tetracycline-inducible expression of the GRIN2B gene (NMDA receptor, NR2B), sequence (Q13224 27-1484, other chains not shown): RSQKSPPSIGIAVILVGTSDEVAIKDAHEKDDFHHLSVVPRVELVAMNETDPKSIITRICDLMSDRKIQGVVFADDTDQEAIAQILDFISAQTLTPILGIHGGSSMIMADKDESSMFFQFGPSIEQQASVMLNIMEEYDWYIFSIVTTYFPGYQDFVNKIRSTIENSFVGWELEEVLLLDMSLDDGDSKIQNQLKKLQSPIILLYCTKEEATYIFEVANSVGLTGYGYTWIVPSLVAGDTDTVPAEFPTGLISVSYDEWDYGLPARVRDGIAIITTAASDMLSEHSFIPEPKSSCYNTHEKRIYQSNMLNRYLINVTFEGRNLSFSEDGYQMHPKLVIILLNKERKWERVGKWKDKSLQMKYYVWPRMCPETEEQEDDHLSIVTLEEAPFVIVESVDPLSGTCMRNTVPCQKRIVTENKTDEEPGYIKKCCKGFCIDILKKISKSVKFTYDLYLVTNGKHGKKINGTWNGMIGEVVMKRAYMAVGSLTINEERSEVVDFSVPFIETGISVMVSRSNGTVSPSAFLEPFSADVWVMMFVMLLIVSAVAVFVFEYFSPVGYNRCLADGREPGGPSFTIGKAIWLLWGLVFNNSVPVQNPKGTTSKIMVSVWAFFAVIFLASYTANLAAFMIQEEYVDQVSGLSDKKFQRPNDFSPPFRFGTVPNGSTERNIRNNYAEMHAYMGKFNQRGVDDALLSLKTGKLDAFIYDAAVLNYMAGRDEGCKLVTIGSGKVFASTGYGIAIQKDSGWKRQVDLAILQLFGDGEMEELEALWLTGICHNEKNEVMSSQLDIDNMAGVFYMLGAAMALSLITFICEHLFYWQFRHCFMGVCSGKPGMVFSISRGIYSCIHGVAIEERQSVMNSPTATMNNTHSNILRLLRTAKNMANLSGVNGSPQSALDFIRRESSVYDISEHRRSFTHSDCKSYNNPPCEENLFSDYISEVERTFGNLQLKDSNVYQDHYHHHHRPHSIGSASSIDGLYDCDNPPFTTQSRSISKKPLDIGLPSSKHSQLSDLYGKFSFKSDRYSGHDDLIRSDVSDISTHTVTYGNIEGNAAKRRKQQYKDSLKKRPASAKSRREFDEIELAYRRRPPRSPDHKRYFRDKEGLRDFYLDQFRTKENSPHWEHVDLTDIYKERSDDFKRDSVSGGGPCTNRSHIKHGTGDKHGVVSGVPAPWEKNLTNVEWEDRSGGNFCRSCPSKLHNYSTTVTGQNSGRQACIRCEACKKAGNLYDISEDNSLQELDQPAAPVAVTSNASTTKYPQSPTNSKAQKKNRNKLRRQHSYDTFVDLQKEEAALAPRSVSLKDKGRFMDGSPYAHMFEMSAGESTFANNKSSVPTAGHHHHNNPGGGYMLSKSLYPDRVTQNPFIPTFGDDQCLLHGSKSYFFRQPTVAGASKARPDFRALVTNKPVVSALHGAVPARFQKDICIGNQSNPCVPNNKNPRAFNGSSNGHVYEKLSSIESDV

Response Recovered (%) | SMILES
2% | O=C(Cn1cnc2csc(-c3ccc(Cl)cc3)c2c1=O)NC1CCC1 [Example 347, 2-(5-(4-chlorophenyl)-4-oxothieno[3,4-d]pyrimidin-3-(4H)-yl)-N-cyclobutylacetamide]
61% | CCOCn1cc(-c2ccc(F)c(C(F)(F)F)c2)c2c(=O)n(CC(=O)N3CCC(F)C3)ccc21 (stereo not shown) [Example 241, 1-(ethoxymethyl)-3-(4-fluoro-3-(trifluoromethyl)phenyl)-5-(2-(3-fluoropyrrolidin-1-yl)-2-oxoethyl)-1H-pyrrolo[3,2-c]pyridin-4(5H)-one]
20% | O=C(Cn1ncc2scc(-c3ccc(Cl)c(C(F)(F)F)c3)c2c1=O)N1CC(F)(F)C1 [Example 339, 3-(4-chloro-3-(trifluoromethyl)phenyl)-5-(2-(3,3-difluoroazetidin-1-yl)-2-oxoethyl)thieno[2,3-d]pyridazin-4(5H)-one]
5.2% | O=C(Cn1ccc2ncc(-c3cnc(Cl)c(C(F)(F)F)c3)n2c1=O)N1CCC(F)C1 (stereo not shown) [Example 449, 3-(6-chloro-5-(trifluoromethyl)pyridin-3-yl)-6-(2-(3-fluoropyrrolidin-1-yl)-2-oxoethyl)imidazo[1,2-c]pyrimidin-5(6H)-one]
120% | CC1(F)CN(C(=O)Cn2ccn3c(C4CC4)nc(-c4ccc(Cl)c(Cl)c4)c3c2=O)C1 [Example 435, 3-cyclopropyl-1-(3,4-dichlorophenyl)-7-(2-(3-fluoro-3-methylazetidin-1-yl)-2-oxoethyl)imidazo[1,5-a]pyrazin-8(7H)-one]
61% | Cn1cc(-c2ccc(F)c(C(F)(F)F)c2)c2c(=O)n(CC(=O)N3CCC(F)C3)ccc21 (stereo not shown) [Example 251]
19% | Cc1nc(-c2ccc(F)c(C(F)(F)F)c2)c2c(=O)n(CC(=O)N3CCC(F)C3)ccn12 (stereo not shown) [Example 427, 1-(4-fluoro-3-(trifluoromethyl)phenyl)-7-(2-(3-fluoropyrrolidin-1-yl)-2-oxoethyl)-3-methylimidazo[1,5-a]pyrazin-8(7H)-one]

More lines, now with the values behind:

SMILES | Response Recovered (%)
C/C(=N/O)c1cn(CC(=O)N2CCC(F)C2)c(=O)c2c(-c3ccc(F)c(C(F)(F)F)c3)csc12 (stereo not shown) [Example 135, (Z)-3-(4-fluoro-3-(trifluoromethyl)phenyl)-5-(2-(3-fluoropyrrolidin-1-yl)-2-oxoethyl)-7-(1-(hydroxyimino)ethyl)thieno[3,2-c]pyridin-4(5H)-one] | 11%
O=C(Cn1cc(-c2ccncc2)c2scc(-c3ccc(F)c(C(F)(F)F)c3)c2c1=O)N1CCCC1 [Example 105, 3-(4-fluoro-3-(trifluoromethyl)phenyl)-5-(2-oxo-2-(pyrrolidin-1-yl)ethyl)-7-(pyridin-4-yl)thieno[3,2-c]pyridin-4(5H)-one] | 22%
CCn1cc(-c2ccc(Cl)c(Cl)c2)c2c(=O)n(CC(=O)N3CCC(F)C3)ccc21 (stereo not shown) [Example 272, 3-(3,4-dichlorophenyl)-1-ethyl-5-(2-(3-fluoropyrrolidin-1-yl)-2-oxoethyl)-1H-pyrrolo[3,2-c]pyridin-4(5H)-one] | 33%
CCC1(F)CN(C(=O)Cn2ccc3scc(-c4ccc(F)c(Cl)c4)c3c2=O)C1 [Example 52, 3-(3-chloro-4-fluorophenyl)-5-(2-(3-ethyl-3-fluoroazetidin-1-yl)-2-oxoethyl)thieno[3,2-c]pyridin-4(5H)-one] | 130%
CC1(F)CN(C(=O)Cn2ccc3scc(-c4cnc(F)c(Cl)c4)c3c2=O)C1 [Example 19, 3-(5-chloro-6-fluoropyridin-3-yl)-5-(2-(3-fluoro-3-methylazetidin-1-yl)-2-oxoethyl)thieno[3,2-c]pyridin-4(5H)-one] | 35%
CN(C)Cc1cn(CC(=O)N2CCC(F)C2)c(=O)c2c(-c3ccc(Cl)c(Cl)c3)csc12 (stereo not shown) [Example 123, 3-(3,4-dichlorophenyl)-7-((dimethylamino)methyl)-5-(2-(3-fluoropyrrolidin-1-yl)-2-oxoethyl)thieno[3,2-c]pyridin-4(5H)-one] | 70%
